In brackets after ≈: the same amount, converted by molar mass. Bounds are passed on as bounds.

The source of these data is DBAASP.

Some test systems named below: Escherichia coli BL21; Escherichia coli K-12; Klebsiella pneumoniae.
Experiment in all cases: ≥ marks a high value that may be exact or a test limit, other limits are often not marked, values filed in µg/mL are converted to µM
In assay [1] the test system is Pseudomonas aeruginosa PAO1.
The test system of assay [2] is Streptococcus pyogenes M1T1 5448.
Assay [3] concerns Staphylococcus aureus ATCC 43300.
For assay [4], the system named is Staphylococcus aureus NCTC 10788.
The subject of assay [5] is Staphylococcus aureus NCTC 12493.
For assay [6], the system named is Candida albicans NCYC 1467.
The test system of assay [7] is Pseudomonas aeruginosa ATCC 27853.
For assay [8], the system named is Escherichia coli NCTC 10418.
Assay [9] relates to Staphylococcus aureus USA 300.
Assay [10] relates to Escherichia coli ATCC 25922.
In assay [11] the test system is Bacillus subtilis ATCC 6051.
The subject of assay [12] is Escherichia coli NEB5alpha.
In assay [13] the test system is Staphylococcus aureus NCTC 8325-4.

As usually defined, the MIC is the lowest concentration found to suppress growth. `CC[C@H](C)[C@H](NC(=O)[C@H](Cc1ccccc1)NC(=O)[C@H](C)NC(=O)[C@H](CCCCN)NC(=O)[C@H](CCCCN)NC(=O)CNC(=O)[C@H](CCCN=C(N)N)NC(=O)[C@H](CCCCN)NC(=O)[C@H](CCCN=C(N)N)NC(=O)[C@H](CC(C)C)NC(=O)[C@H](Cc1ccc(O)cc1)NC(=O)[C@H](CCC(=O)O)NC(=O)[C@H](CCCCN)NC(=O)[C@H](CC(C)C)NC(=O)[C@H](CCC(=O)O)NC(=O)[C@H](CC(C)C)NC(=O)[C@@H](NC(=O)[C@H](CC(C)C)NC(=O)[C@H](CCCCN)NC(=O)[C@H](CCC(N)=O)NC(=O)[C@H](CCCN=C(N)N)NC(=O)CNC(=O)[C@H](C)N)[C@@H](C)O)C(=O)N[C@@H](C)C(=O)N[C@@H](Cc1c[nH]c2ccccc12)C(=O)O` [AGRQKLTLELKEYLRKRGKKAFIAW]: the minimal inhibitory concentration (MIC) with Escherichia coli BL21 came out at 16 µM (≈ 48.1 µg/mL); in [1], 128 µM (≈ 385 µg/mL); in assay [2] it was 4 µM (≈ 12 µg/mL).
`CC[C@H](C)[C@H](NC(=O)[C@H](CCC(=O)O)NC(=O)[C@H](CCCN=C(N)N)NC(=O)[C@H](CCCN=C(N)N)NC(=O)[C@H](CC(C)C)NC(=O)[C@H](Cc1ccc(O)cc1)NC(=O)[C@H](C)NC(=O)[C@H](CCCCN)NC(=O)[C@@H](NC(=O)[C@@H](NC(=O)[C@H](CCC(N)=O)NC(=O)[C@H](CCCN=C(N)N)NC(=O)CNC(=O)[C@H](C)N)[C@@H](C)O)[C@@H](C)CC)C(=O)N[C@@H](CCCN=C(N)N)C(=O)N[C@@H](CCCCN)C(=O)N[C@@H](CCCN=C(N)N)C(=O)NCC(=O)N[C@@H](CCCN=C(N)N)C(=O)N[C@@H](CCCCN)C(=O)N[C@@H](C)C(=O)N[C@H](C(=O)N[C@H](C(=O)N[C@@H](C)C(=O)N[C@@H](Cc1c[nH]c2ccccc12)C(=O)O)[C@@H](C)CC)C(C)C` [AGRQTIKAYLRREIRKRGRKAVIAW]: the figures for the MIC (against Escherichia coli BL21; in assay [1]; in [2]) were 8 µM (≈ 24 µg/mL), 16 µM (≈ 48 µg/mL) and 8 µM (≈ 24 µg/mL), respectively.
Regarding `CC[C@H](C)[C@H](NC(=O)[C@H](CCCN=C(N)N)NC(=O)CNC(=O)[C@@H](NC(=O)[C@H](CCCCN)NC(=O)[C@H](CCCN=C(N)N)NC(=O)[C@@H](NC(=O)[C@H](Cc1ccc(O)cc1)NC(=O)[C@H](CCCN=C(N)N)NC(=O)[C@H](CCCN=C(N)N)NC(=O)[C@H](CC(C)C)NC(=O)[C@H](CCC(=O)O)NC(=O)[C@H](CCCCN)NC(=O)[C@H](C)NC(=O)[C@@H](NC(=O)[C@H](CCCN=C(N)N)NC(=O)[C@H](CC(N)=O)NC(=O)[C@@H](NC(=O)[C@H](CCCCN)NC(=O)[C@H](C)N)[C@@H](C)O)[C@@H](C)CC)[C@@H](C)CC)C(C)C)C(=O)N[C@@H](C)C(=O)N[C@@H](CCCN=C(N)N)C(=O)N[C@@H](CCCCN)C(=O)N[C@@H](C)C(=O)N[C@@H](Cc1c[nH]c2ccccc12)C(=O)O` [AKTNRIAKELRRYIRKVGRIARKAW], the minimum inhibitory concentration (MIC) against Escherichia coli BL21 was determined as 0.25 µM (≈ 0.764 µg/mL); in assay [1], 8 µM (≈ 24.4 µg/mL); in assay [2] it was 0.5 µM (≈ 1.53 µg/mL).
As for `CSCC[C@H](NC(=O)[C@H](CC(=O)O)NC(=O)[C@@H](NC(=O)[C@@H](NC(=O)[C@H](C)NC(=O)[C@H](CC(N)=O)NC(=O)[C@H](CC(C)C)NC(=O)[C@@H](NC(=O)[C@H](C)NC(=O)[C@H](CCCCN)NC(=O)CNC(=O)[C@H](C)NC(=O)[C@H](C)NC(=O)[C@H](CCCCN)NC(=O)CNC(=O)[C@@H](NC(=O)[C@H](CC(N)=O)NC(=O)[C@H](CCCCN)NC(=O)[C@H](CC(C)C)NC(=O)[C@H](CC(C)C)NC(=O)[C@@H](NC(=O)[C@H](CCCCN)NC(=O)[C@H](Cc1c[nH]c2ccccc12)NC(=O)[C@H](CC(C)C)NC(=O)[C@H](C)N)[C@@H](C)O)C(C)C)C(C)C)C(C)C)[C@@H](C)O)C(=O)N[C@H](C(=O)N[C@@H](CC(N)=O)C(=O)N[C@@H](CCC(N)=O)C(N)=O)C(C)C` [ALWKTLLKNVGKAAGKAVLNAVTDMVNQ], the MIC came out at 2.71 µM (≈ 8 µg/mL) in assay [3]; 2.71 µM (≈ 8 µg/mL) in assay [4]; 5.42 µM (≈ 16 µg/mL) in assay [5]; 5.42 µM (≈ 16 µg/mL) in assay [6]; 5.42 µM (≈ 16 µg/mL) in assay [7]; 2.71 µM (≈ 8 µg/mL) in [8].
Consider `CC[C@H](C)[C@H](NC(=O)[C@H](CCCCN)NC(=O)[C@H](CCCCN)NC(=O)[C@H](CC(C)C)NC(=O)[C@H](C)NC(=O)CNC(=O)[C@@H](NC(=O)[C@H](C)NC(=O)[C@H](CCCCN)NC(=O)[C@@H]1CCCN1C(=O)[C@H](CC(C)C)NC(=O)[C@H](CC(C)C)NC(=O)[C@H](CCCCN)NC(=O)[C@H](Cc1ccccc1)NC(=O)[C@H](Cc1ccccc1)NC(=O)[C@@H](N)Cc1ccccc1)[C@@H](C)CC)C(=O)O` [FFFKLLPKAIGALKKI], for which the MIC in assay [7] was 64 µM (≈ 117 µg/mL); against Escherichia coli K-12, ≥ 128 µM.
In the case of `CC[C@H](C)[C@H](NC(=O)[C@H](Cc1cnc[nH]1)NC(=O)[C@H](CCCCN)NC(=O)[C@@H](NC(=O)[C@@H](NC(=O)[C@H](CC(=O)O)NC(=O)[C@H](Cc1ccccc1)NC(=O)[C@H](Cc1c[nH]c2ccccc12)NC(=O)CN)C(C)C)C(C)C)C(=O)N[C@@H](C)C(=O)N[C@@H](CCCCN)C(=O)N[C@@H](CCCNC(=N)N)C(=O)N[C@@H](Cc1ccccc1)C(N)=O` [GWFDVVKHIAKRF], the figures for the minimal inhibitory concentration (MIC) (in assay [9]; against Escherichia coli K-12) were ≥ 50 µM and 12.5 µM (≈ 20 µg/mL), respectively.
Turning to `CC[C@H](C)[C@H](NC(=O)[C@@H](N)Cc1cnc[nH]1)C(=O)N[C@@H](CCC(N)=O)C(=O)N[C@@H](CCCCN)C(=O)N[C@@H](CCC(=O)O)C(=O)N[C@@H](CC(=O)O)C(=O)N[C@H](C(=O)N1CCC[C@H]1C(=O)N[C@@H](CO)C(=O)N[C@@H](CCC(=O)O)C(=O)N[C@@H](CCCN=C(N)N)C(=O)N[C@@H](Cc1ccc(O)cc1)C(=O)N[C@@H](CC(C)C)C(=O)NCC(=O)N[C@@H](Cc1ccc(O)cc1)C(=O)N[C@@H](CC(C)C)C(=O)N[C@@H](CCC(=O)O)C(=O)N[C@@H](CCC(N)=O)C(=O)N[C@@H](CC(C)C)C(=O)N[C@@H](CC(C)C)C(=O)N[C@@H](CCCN=C(N)N)C(=O)N[C@@H](CC(C)C)C(=O)N[C@@H](CCCCN)C(=O)O)C(C)C` [HIQKEDVPSERYLGYLEQLLRLK], the MIC in assay [10] was 583 µM (≈ 1650 µg/mL); in assay [11] it was ≥ 292 µM; in assay [12], ≥ 292 µM.
As to `CC[C@H](C)[C@H](N)C(=O)N[C@@H](CCCCN)C(=O)N[C@@H](CCCCN)C(=O)N[C@H](C(=O)N[C@H](C(=O)N[C@@H](CCCCN)C(=O)N[C@@H](CCCCN)C(=O)N[C@H](C(=O)N[C@H](C(=O)N[C@@H](CCCCN)C(=O)N[C@@H](CCCCN)C(=O)N[C@H](C(N)=O)[C@@H](C)CC)[C@@H](C)CC)[C@@H](C)CC)[C@@H](C)CC)[C@@H](C)CC` [IKKIIKKIIKKI], the MIC is ≥ 250 µM in assay [13], 15.6 µM (≈ 22.9 µg/mL) in [1], > 500 µM against Klebsiella pneumoniae and 15.6 µM (≈ 22.9 µg/mL) in the assay on Escherichia coli K-12.
Consider `CC(C)C[C@H](NC(=O)[C@H](CCCN=C(N)N)NC(=O)[C@H](CC(N)=O)NC(=O)[C@H](CC(C)C)NC(=O)[C@@H](N)CCCCN)C(=O)N[C@@H](CCCCN)C(=O)N[C@@H](CCC(=O)O)C(=O)N[C@@H](CCCCN)C(=O)N[C@@H](CC(N)=O)C(=O)N[C@@H](CCCCN)C(=O)N[C@@H](C)C(=O)N[C@@H](CCCCN)C(=O)N[C@@H](CC(N)=O)C(=O)N[C@@H](CO)C(=O)N[C@@H](CCCCN)C(=O)N[C@@H](CCC(=O)O)C(=O)N[C@@H](CC(N)=O)C(=O)N[C@@H](CC(N)=O)C(=O)O` [KLNRLKEKNKAKNSKENN], for which the MIC in [4] is ≥ 237 µM; in assay [6], ≥ 237 µM; in [7] it was > 237 µM; in assay [8] it was ≥ 237 µM.
On to `CC[C@H](C)[C@H](NC(=O)[C@H](Cc1c[nH]c2ccccc12)NC(=O)[C@@H]1CCCN1C(=O)[C@H](CCCCN)NC(=O)[C@H](CCSC)NC(=O)[C@H](C)NC(=O)[C@H](CCCCN)NC(=O)[C@H](CCC(N)=O)NC(=O)[C@H](Cc1cnc[nH]1)NC(=O)[C@H](CCC(N)=O)NC(=O)[C@H](Cc1ccc(O)cc1)NC(=O)[C@@H](NC(=O)[C@@H](N)[C@@H](C)O)C(C)C)C(=O)N[C@@H](CCC(N)=O)C(=O)N1CCC[C@H]1C(=O)N[C@@H](CCCCN)C(=O)N[C@H](C(=O)N[C@@H](CCCCN)C(=O)N[C@H](C(=O)N[C@H](C(=O)N1CCC[C@H]1C(=O)N[C@@H](Cc1ccc(O)cc1)C(=O)N[C@H](C(=O)N[C@@H](CCCN=C(N)N)C(=O)N[C@@H](Cc1ccc(O)cc1)C(=O)N[C@@H](CC(C)C)C(=O)O)C(C)C)[C@@H](C)CC)C(C)C)[C@@H](C)O` [TVYQHQKAMKPWIQPKTKVIPYVRYL], for which the minimal inhibitory concentration (MIC) in [10] was 171 µM (≈ 550 µg/mL); in [11] it was 2.67 µM (≈ 8.6 µg/mL); in assay [12], 21.4 µM (≈ 68.8 µg/mL).
In the same order, the values of `CC(C)C[C@H](NC(=O)[C@H](CC(C)C)NC(=O)[C@H](CCC(N)=O)NC(=O)[C@H](CCC(=O)O)NC(=O)[C@H](CC(C)C)NC(=O)[C@@H](N)Cc1ccc(O)cc1)C(=O)N[C@@H](CCCN=C(N)N)C(=O)O` [YLEQLLR] are 40.1 µM (≈ 37.5 µg/mL), ≥ 53.5 µM and ≥ 241 µM.
